Experiments:
[1] = system: secretion of cytokine IL-8 in human monocyte cell line THP-1 triggered by lipopolysaccharide (LPS); assay: Inhibition of LPS-triggered secretion of cytokine IL-8 in THP-1 cells (ELISA); assay type: cell-based; conditions: LPS-triggered IL-8 secretion, THP-1, supernatant ELISA, read-out: inhibition IC50(IL8)
Method: The concentration of the cytokines was determined in the supernatant by means of commercially available ELISA kits.

[2] = molecular target: glucocorticoid receptor (GR) (Homo sapiens, UniProt P04150); assay: biochemical
Chain of glucocorticoid receptor (GR) (P04150 whole entry, species assumed): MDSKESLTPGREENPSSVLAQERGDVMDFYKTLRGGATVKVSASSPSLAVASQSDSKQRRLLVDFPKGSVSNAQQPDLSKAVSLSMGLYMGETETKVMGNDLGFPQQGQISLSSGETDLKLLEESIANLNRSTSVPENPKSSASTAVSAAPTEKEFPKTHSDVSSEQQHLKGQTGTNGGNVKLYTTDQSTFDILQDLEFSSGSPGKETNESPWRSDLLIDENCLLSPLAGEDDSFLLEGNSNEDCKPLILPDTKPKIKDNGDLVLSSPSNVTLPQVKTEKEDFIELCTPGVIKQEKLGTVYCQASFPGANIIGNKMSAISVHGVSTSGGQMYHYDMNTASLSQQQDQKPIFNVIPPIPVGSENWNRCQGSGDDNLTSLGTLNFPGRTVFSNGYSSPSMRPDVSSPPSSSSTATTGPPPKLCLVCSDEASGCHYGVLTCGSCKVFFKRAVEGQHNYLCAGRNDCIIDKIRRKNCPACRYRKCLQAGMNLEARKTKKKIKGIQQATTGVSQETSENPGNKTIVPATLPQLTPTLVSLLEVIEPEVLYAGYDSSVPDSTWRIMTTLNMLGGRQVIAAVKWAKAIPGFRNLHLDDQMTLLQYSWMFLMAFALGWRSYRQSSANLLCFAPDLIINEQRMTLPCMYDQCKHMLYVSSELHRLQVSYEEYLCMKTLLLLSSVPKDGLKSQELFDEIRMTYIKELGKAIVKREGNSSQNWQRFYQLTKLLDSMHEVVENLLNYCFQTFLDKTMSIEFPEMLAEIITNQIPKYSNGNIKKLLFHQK
Description: The binding of the substances to the glucocorticoid receptor (GR) and other steroid hormone receptors (mineral corticoid receptor (MR), progesterone receptor (PR) and androgen receptor (AR)) is examined with the aid of recombinantly produced receptors. Cytosol preparations of Sf9 cells, which had been infected with recombinant baculoviruses, which code for the GR, are used for the binding studies.

Structure (SMILES)	melting point [°C]	IC50 [1] [nM]	IC50 [2] [nM]
C=C(C)CC(O)(C(Nc1ccc(F)c2nc(C)ncc12)c1ccc(Cl)cc1OC)C(F)(F)F (racemic) [Example 7, 2-{4-Chloro-alpha-[(8-fluoro-2-methylquinazolin-5-yl)amino]-2-methoxybenzyl}-1,1,1-trifluoro-4-methylpent-4-en-2-ol]	72 to 73		
C=C(C)CC(O)(C(Nc1cccc2c(=O)[nH]ccc12)c1cc(Br)ccc1O)C(F)(F)F (stereo not drawn) [Example 3, 5-{[1-(5-Bromo-2-hydroxyphenyl)-2-hydroxy-4-methyl-2-(trifluoromethyl)-pent-4-en-1-yl]amino}-isoquinolin-1(2H)-one]		25	64

Reference: patent publication US7442794B2, “Rearranged pentanols, a process for their production and their use as anti-inflammatory agents” (Schering AG, priority 2003, dated 2008)
